Data set [1] can be described thus: Cytotoxicity against mouse L929 cells by CCK-8 assay. Format: toxicity, cell-based. On the technique in general: Formazan colour is commonly taken as a measure of viable cells.
The subject of a further data set is L929. As to the kind of experiment: Anti-necroptosis activity against TNFalpha/z-VAD-fmk-induced mouse L929 cell necroptosis model assessed as cell viability pretreated with compound for 1 hr followed by treated with TZ for 6 hrs. Format: functional, cell-based.
The target of data set [2] is T1, Receptor-interacting serine/threonine-protein kinase 1 (Homo sapiens, UniProt Q13546).
T1 sequence (Q13546 whole entry): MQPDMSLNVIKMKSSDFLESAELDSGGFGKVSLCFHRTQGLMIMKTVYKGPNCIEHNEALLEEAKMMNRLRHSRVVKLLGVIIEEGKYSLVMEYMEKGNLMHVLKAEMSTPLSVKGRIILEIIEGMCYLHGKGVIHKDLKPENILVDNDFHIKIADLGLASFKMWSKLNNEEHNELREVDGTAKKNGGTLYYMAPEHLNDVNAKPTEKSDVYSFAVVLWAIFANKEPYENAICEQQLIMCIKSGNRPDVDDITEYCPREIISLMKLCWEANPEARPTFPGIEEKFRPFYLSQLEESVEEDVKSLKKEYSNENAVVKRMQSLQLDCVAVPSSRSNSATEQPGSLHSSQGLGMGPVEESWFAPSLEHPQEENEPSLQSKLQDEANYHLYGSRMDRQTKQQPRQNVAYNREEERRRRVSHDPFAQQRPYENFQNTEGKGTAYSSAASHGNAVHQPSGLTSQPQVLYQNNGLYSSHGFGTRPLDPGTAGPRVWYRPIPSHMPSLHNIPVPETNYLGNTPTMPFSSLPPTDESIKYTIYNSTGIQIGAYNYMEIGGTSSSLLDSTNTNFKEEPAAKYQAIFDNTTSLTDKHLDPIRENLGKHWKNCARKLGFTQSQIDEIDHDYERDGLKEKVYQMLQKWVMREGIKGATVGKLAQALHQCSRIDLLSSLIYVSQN
As to the kind of experiment: Inhibition of RIPK1 (unknown origin) using MBP substrate incubated for 2 hrs by ADP-Glo kinase function assay.

Another data set deals with HT-29. As to the kind of experiment: Anti-necroptosis activity against TS-induced human HT-29 cell necroptosis model assessed as cell viability at 0.039 to 10 uM pretreated with compound for 1 hr followed by treated with TS for 12 hrs. In kind it is functional, cell-based. Conditions: dose 0.039-10 µM.
A further data set concerns Mus musculus. The data set is described as follows: In vivo anti-necroptotic effect in TNFalpha-induced systemic inflammatory response syndrome C57BL/6J mouse model assessed as reduction in hypothermic injury by measuring increase in survival at 10 mg/kg, ip followed by compound treatment after 1 hr injected moue TNFalpha and measured continuously upto 72 hrs. Conditions: time 73 hrs. In kind it is functional.

pEC50, pIC50: −log10 of the molar value. Activity calls are given as the source filed them. The rule behind the calls is not given here. Some results are limits rather than exact numbers.

Consider `Nc1ccc(-c2cc3cccnc3[nH]2)cc1`, for which the CC50 (usually the concentration that lowers cell viability or growth by half) in data set [1] is above 50 µM. For the same molecule, the pEC50 (usually the EC50 on a negative log10 scale, so that one unit is a factor of ten) in the data set with L929 was 6.57. Besides, the pIC50 (in general, the IC50 on a negative log10 scale, so that one unit is a factor of ten) in data set [2] was 6.62.

In turn, `N#Cc1ccc(-c2cnc3[nH]ccc3c2)cc1` yielded a CC50 in data set [1] above 50 µM. The pEC50 in the data set on L929 is 5.73. In data set [2], this molecule showed a pIC50 of 5.93.

On to `O=C(c1ccc(-c2cc3cccnc3[nH]2)cc1)N1CCCCC1`, for which the CC50 in data set [1] is above 50 µM. Further, the negative logarithm of the EC50 (pEC50) with L929 is 6.89. For the same molecule, the pIC50 in data set [2] is 6.92.

For the molecule `Oc1ccccc1-c1cc2cccnc2[nH]1`, the CC50 in data set [1] was above 50 µM. For the same molecule, the pEC50 in the data set on L929 is 5.94. Also, the pIC50 in data set [2] was 6.02.

`NC(=O)c1ccc(-c2cc3cccnc3[nH]2)cc1` registered a 50% cytotoxic concentration (CC50) in data set [1] above 50 µM. Also, the pEC50 in the data set on L929 was 7.05. In data set [2], this molecule had a pIC50 of 6.96.

With `Oc1ccc(-c2cnc3nccnc3c2)cc1`, the half-maximal cytotoxic concentration (CC50) in data set [1] is above 50 µM. Moreover, in the data set on L929, the pEC50 was below 5.00.

As for `Oc1ccc(-c2ccc(-c3cc4cccnc4[nH]3)cc2)cc1`, in data set [1], the CC50 was above 10 µM. The pEC50 in the data set with L929 was 6.46. This molecule also showed a pIC50 in data set [2] of 6.64.

On to `Oc1ccc(-c2cc3cccnc3[nH]2)cc1F`, for which the CC50 in data set [1] was above 50 µM. The pEC50 in the data set with L929 was 5.93. In data set [2], this molecule showed a pIC50 of 5.59.

`CCCNC(=O)c1ccc(-c2cc3cccnc3[nH]2)cc1` registered a CC50 in data set [1] above 50 µM. Also, in the data set on L929, the negative-log EC50 (pEC50) was 6.09. This molecule gave a pIC50 in data set [2] of 6.20.

In turn, `O/N=C/c1ccc(-c2cnc3[nH]ccc3c2)cc1` displayed a CC50 in data set [1] above 20 µM. For the same molecule, in the data set on L929, the pEC50 is 5.37. The molecule further showed a pIC50 in data set [2] of 5.44.

Consider `CCNC(=O)c1ccc(-c2cc3cccnc3[nH]2)cc1`, for which the half-maximal cytotoxic concentration (CC50) in data set [1] was above 50 µM. Moreover, the pEC50 with L929 is 6.62. The pIC50 in data set [2] was 6.74.

In data set [1], `CC(C)(C)NC(=O)c1ccc(-c2cc3cccnc3[nH]2)cc1` showed a CC50 above 50 µM. Moreover, the pEC50 with L929 is 6.77. In data set [2], this molecule gave a pIC50 of 7.05.

For the molecule `O=C(c1ccc(-c2cc3cccnc3[nH]2)cc1)N1CCCC1`, in data set [1], the cytotoxic concentration (CC50) was above 50 µM. Moreover, the pEC50 in the data set with L929 is 6.59. The molecule also showed a pIC50 in data set [2] of 6.85.

Consider `Oc1ccc(-c2cnc3[nH]ccc3n2)cc1`, for which, in data set [1], the CC50 was above 50 µM. In the data set with L929, the pEC50 was 5.29. In data set [2], this molecule showed a pIC50 of 5.31.

In data set [1], `Oc1ccc(-c2ccc3cc[nH]c3n2)cc1` displayed a CC50 above 50 µM. In the data set with L929, the negative logarithm of the EC50 (pEC50) was below 5.00.

For `NC(=O)c1ccc(-c2cnc3[nH]ccc3c2)cc1`, in data set [1], the CC50 was above 50 µM. Further, in the data set on L929, the pEC50 was 6.15. In addition, the negative logarithm of the IC50 (pIC50) in data set [2] is 6.77.

Molecule `O=C(c1ccc(-c2cc3cccnc3[nH]2)cc1)N1CCNCC1` had a CC50 in data set [1] above 50 µM. In the data set with L929, the pEC50 was 7.05. Also, the pIC50 in data set [2] was 7.00.

Turning to `Oc1ccc(-c2ccnc3[nH]ccc23)cc1`, the CC50 in data set [1] was above 50 µM. In the data set on L929, the negative-log EC50 (pEC50) is below 5.00.

In data set [1], `OCCc1ccc(-c2cc3cccnc3[nH]2)cc1` displayed a CC50 above 50 µM. Also, the pEC50 in the data set with L929 was 6.52. The same molecule gave a pIC50 in data set [2] of 6.64.

In the case of `Oc1ccc(-c2cnc3[nH]cnc3c2)cc1`, the CC50 in data set [1] is above 50 µM. The negative-log EC50 (pEC50) with L929 is below 5.00.

Turning to `CN1CCN(C(=O)c2ccc(-c3cc4cccnc4[nH]3)cc2)CC1`, the CC50 in data set [1] is above 20 µM. The pEC50 in the data set with L929 was 7.22. Also, the pIC50 in data set [2] is 7.00.

In turn, `Oc1ccc2ccc(-c3cc4cccnc4[nH]3)cc2c1` showed a half-maximal cytotoxic concentration (CC50) in data set [1] above 50 µM. Besides, the pEC50 with L929 is 5.85. The same molecule showed a pIC50 in data set [2] of 5.59.

`O/N=C/c1ccc(-c2cc3cccnc3[nH]2)cc1` came in with a CC50 in data set [1] above 50 µM. For the same molecule, the pEC50 with L929 was 6.17. The pIC50 in data set [2] is 6.57.

For the molecule `Oc1cccc(-c2cc3cccnc3[nH]2)c1`, the CC50 in data set [1] is above 50 µM. Further, the pEC50 in the data set with L929 is 5.91. Also, in data set [2], the pIC50 was 5.97.

As for `Oc1ccc(-c2cc3cccnc3[nH]2)cc1`, in the data set with HT-29, the result was inactive. Also, in data set [1], the CC50 was above 50 µM. In addition, the pEC50 in the data set on L929 is 5.88.

In turn, `Oc1ccc(-c2cc3cccnc3[nH]2)cc1Cl` came in with a CC50 in data set [1] above 50 µM. Further, in the data set on L929, the pEC50 is 5.29. Moreover, in data set [2], the pIC50 is 5.41.

The molecule `CC(C)N(C(=O)c1ccc(-c2cc3cccnc3[nH]2)cc1)C(C)C` returned a cytotoxic concentration (CC50) in data set [1] above 50 µM. In addition, in the data set on L929, the negative-log EC50 (pEC50) is 6.72. For the same molecule, in data set [2], the negative-log IC50 (pIC50) was 6.89.

The molecule `c1cnc2[nH]c(-c3ccc4c(c3)CCCO4)cc2c1` gave a CC50 in data set [1] above 50 µM. Also, in the data set on L929, the pEC50 was 6.05. The same molecule had a pIC50 in data set [2] of 5.93.

Molecule `COc1ccc(-c2cc3ccc[nH]c-3n2)cc1` came in with a CC50 in data set [1] above 50 µM. The pEC50 in the data set with L929 is 6.82. Moreover, the pIC50 in data set [2] was 7.05.

For `Oc1cccc(-c2cnc3[nH]ccc3c2)c1`, the CC50 in data set [1] was above 50 µM. Besides, the negative-log EC50 (pEC50) in the data set with L929 was below 5.00.

In turn, `O=C(NC1CC1)c1ccc(-c2cc3cccnc3[nH]2)cc1` returned a CC50 in data set [1] above 50 µM. Moreover, the pEC50 in the data set on L929 is 6.72. Also, the pIC50 in data set [2] was 6.70.

For the molecule `Oc1ccc(-c2cnc3[nH]ccc3c2)cc1`, in data set [1], the CC50 was above 50 µM. Also, in the data set on L929, the pEC50 is 5.83. The pIC50 in data set [2] was 5.96.

For the molecule `CN1C(=O)C(Cc2c[nH]c3ccccc23)NC1=S` (stereo unspecified) [NECROSTATIN], the survival at 10 mg/kg with Mus musculus was 25%.

As to `Oc1ccccc1-c1cnc2[nH]ccc2c1`, in data set [1], the CC50 is above 50 µM. The pEC50 with L929 is below 5.00.

In data set [1], `CC(C)(C)Oc1ccc(-c2cnc3[nH]ccc3c2)cc1` showed a CC50 above 20 µM. The pEC50 in the data set on L929 is below 5.00.

In the case of `CNC(=O)c1ccc(-c2cc3cccnc3[nH]2)cc1`, the CC50 in data set [1] is above 50 µM. In the data set with L929, the pEC50 was 7.02. Besides, in data set [2], the pIC50 is 7.03.

For `c1cnc2[nH]c(-c3ccc4ncsc4c3)cc2c1`, the CC50 in data set [1] is above 50 µM. For the same molecule, the pEC50 in the data set on L929 is 6.47. Further, in data set [2], the negative logarithm of the IC50 (pIC50) was 6.46.

Turning to `c1ccc(Oc2ccccc2-c2cnc3[nH]ccc3c2)cc1`, the CC50 in data set [1] was above 20 µM. Besides, the pEC50 in the data set with L929 is below 5.00.

Turning to `Oc1ccc(-c2c[nH]c3ncccc23)cc1`, the CC50 in data set [1] is above 50 µM. For the same molecule, the pEC50 in the data set with L929 is below 5.00.

As for `OCc1ccc(-c2cc3cccnc3[nH]2)cc1`, the CC50 in data set [1] was above 50 µM. The pEC50 in the data set on L929 was 6.85. In data set [2], this molecule had a negative-log IC50 (pIC50) of 6.77.

`c1ccc(Oc2ccc(-c3cc4cccnc4[nH]3)cc2)cc1` registered a 50% cytotoxic concentration (CC50) in data set [1] above 50 µM. Also, in the data set on L929, the pEC50 is 5.12. The same molecule showed a pIC50 in data set [2] of 5.05.

The molecule `COc1cc(-c2cc3cccnc3[nH]2)ccc1O` had a CC50 in data set [1] above 50 µM. In addition, the pEC50 in the data set on L929 was 6.85. The pIC50 in data set [2] is 6.92.

The molecule `CC(C)(C)Oc1ccc(-c2cc3cccnc3[nH]2)cc1` had a CC50 in data set [1] above 50 µM. The pEC50 with L929 was 6.77. This molecule showed a pIC50 in data set [2] of 6.66.

As to `CC(C)NC(=O)c1ccc(-c2cc3cccnc3[nH]2)cc1`, the CC50 in data set [1] was above 50 µM. Besides, the pEC50 with L929 was 6.09. Moreover, in data set [2], the pIC50 was 6.30.

The values above are taken from ChEMBL document CHEMBL5385887, “Discovery of Sibiriline derivatives as novel receptor-interacting protein kinase 1 inhibitors” (Eur J Med Chem, 2023).
